This experiment relates to HCT-116. Put plainly: Cytotoxicity in human HCT116 cells by MTT assay. The format is functional, cell-based. For orientation: Tetrazolium dyes change colour on reduction, which living cells bring about.
What is called IC50 is the midpoint of a concentration-inhibition curve. A higher IC50 goes with weaker potency. As to `O=C(Nc1ccc2c(=O)c3sc4c(=O)c5ccc(NC(=O)C(F)(F)F)cc5c(=O)c4c3c(=O)c2c1)C(F)(F)F`, the IC50 amounted to 0.48 µM.

On to `O=c1c2cc(O)ccc2c(=O)c2c1sc1c(=O)c3cc(O)ccc3c(=O)c12`, for which half-maximal inhibition (IC50) was put at 4.4 µM.

`O=c1c2ccccc2c(=O)c2c1sc1c(=O)c3ccc(Cl)cc3c(=O)c12` registered an IC50 of 0.28 µM.

Regarding `CC(=O)Oc1ccc2c(=O)c3c(sc4c(=O)c5cc(O)ccc5c(=O)c43)c(=O)c2c1`, it took 1.6 µM to reach half-maximal inhibition (IC50).

The molecule `O=c1c2ccccc2c(=O)c2c1sc1c(=O)c3cc(Cl)ccc3c(=O)c12` displayed an IC50 of 0.15 µM.

`O=c1c2ccccc2c(=O)c2c1sc1c(=O)c3ccc(O)cc3c(=O)c12` came in with an IC50 of 1.2 µM.

`CC(=O)Oc1ccc2c(=O)c3c(sc4c(=O)c5ccc(O)cc5c(=O)c43)c(=O)c2c1`: the half-inhibitory concentration (IC50) was 1.8 µM.

`O=c1c2ccccc2c(=O)c2c1sc1c(=O)c3cc(O)ccc3c(=O)c12` had an IC50 of 1.3 µM.

`O=c1c2ccc(O)cc2c(=O)c2c1sc1c(=O)c3ccc(O)cc3c(=O)c12` gave an IC50 of 1.6 µM.

As to `CC(=O)Oc1ccc2c(=O)c3sc4c(=O)c5cc(O)ccc5c(=O)c4c3c(=O)c2c1`, the midpoint of inhibition, the IC50, lay at 3.5 µM.

As to `O=C(Nc1ccc2c(=O)c3c(sc4c(=O)c5cc(NC(=O)C(F)(F)F)ccc5c(=O)c43)c(=O)c2c1)C(F)(F)F`, the IC50 worked out at 0.58 µM.

`CC(=O)Oc1ccc2c(=O)c3c(sc4c(=O)c5cc(OC(C)=O)ccc5c(=O)c43)c(=O)c2c1` had a half-inhibitory concentration (IC50) of 5.8 µM.

(Values after ChEMBL document CHEMBL4420075, “Seriniquinones, melanoma-specific anticancer agents” (2016).)
